What was measured:
sodium channel = assay: Guanidine influx assay (14C-guanidine radiotracer flux, in vitro); type: cell-based, human or rat; settings: guanidine influx assay using a known cell line that expresses a sodium channel
In short: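 Radiotracer read-out: intracellular 14C-guanidine counted after washing with guanidine-supplemented low-sodium buffer. Cells expressing human or rat channels get test agent plus aconitine activator and tracer, incubated at ambient temperature. Dilution series centred on 1 μM; IC50 by sigmoidal dose-response fit.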

CYP3A4 = CYP3A4 (Homo sapiens, UniProt P08684); assay: Cytochrome P450 (CYP450) Inhibition Assay, CYP3A4 (Vivid fluorescence, BOMCC substrate); settings: human, P450 Baculosomes (recombinant CYP3A4), probe BOMCC (Vivid substrate)
Chain of CYP3A4 (P08684 whole entry): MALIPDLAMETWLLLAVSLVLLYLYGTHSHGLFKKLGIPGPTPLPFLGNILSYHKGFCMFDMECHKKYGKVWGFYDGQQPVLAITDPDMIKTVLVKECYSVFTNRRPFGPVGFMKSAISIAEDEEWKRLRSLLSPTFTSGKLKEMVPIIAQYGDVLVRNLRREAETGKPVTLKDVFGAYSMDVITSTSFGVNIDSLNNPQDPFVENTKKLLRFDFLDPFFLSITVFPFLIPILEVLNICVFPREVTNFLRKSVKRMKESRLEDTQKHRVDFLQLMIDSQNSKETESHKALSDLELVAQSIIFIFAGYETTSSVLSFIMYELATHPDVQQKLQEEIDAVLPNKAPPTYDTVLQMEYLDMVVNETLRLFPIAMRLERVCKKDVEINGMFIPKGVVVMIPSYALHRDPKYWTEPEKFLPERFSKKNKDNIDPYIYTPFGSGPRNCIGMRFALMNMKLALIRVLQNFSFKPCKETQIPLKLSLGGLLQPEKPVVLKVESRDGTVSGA

SMILES | IC50 (sodium channel; activity level class) [nM] | melting point [°C] | inhibition at 10 µM (CYP3A4) [%] | IC50 (sodium channel) [nM]
O=C1N(Cc2nnc(-c3ccccc3)o2)c2ccccc2C12COc1cc3c(cc12)OCO3 (stereo not drawn) [Example 6.6, 1′-[(5-phenyl-1,3,4-oxadiazol-2-yl)methyl]spiro[furo[2,3-f][1,3]benzodioxole-7,3′-indol]-2′(1′H)-one] | 100 to 1000 | 158 to 160 | > 50 | 
N#Cc1ccccc1-c1ccc(CN2C(=O)C3(COc4cc5c(cc43)CCO5)c3ccccc32)cc1 (stereo not drawn) [Example 4.24, 4′-[(2′-oxo-5,6-dihydrospiro[benzo[1,2-b:5,4-b′]difuran-3,3′-indol]-1′(2′H)-yl)methyl]biphenyl-2-carbonitrile] | 100 to 1000 | 192 to 194 | < 50 | 
O=C1N(C[C@H]2CCCO2)c2ccccc2C12COc1cc3c(cc12)OCC3 (stereo partly drawn) [Example 8.9, 1′-[(2R)-tetrahydrofuran-2-ylmethyl]-6,7-dihydrospiro[benzo[1,2-b:4,5-b′]difuran-3,3′-indol]-2′(1′H)-one] | 100 to 1000 | 162 to 164 | < 50 | 
O=C1Nc2ccccc2C12COc1c(Cl)cc3c(c12)OCCO3 (stereo not drawn) [Example 3.42, 6-chloro-2,3-dihydrospiro[furo[3,2-f][1,4]benzodioxine-9,3′-indol]-2′(1′H)-one] | 1000 to 10000 | 255 to 257 | < 50 | 
CN(C)C(=O)c1cc(CN2C(=O)C3(COc4cc5c(cc43)OCO5)c3ccccc32)oc1C(F)(F)F (stereo not drawn) [Example 12.59, N,N-dimethyl-5-[(2′-oxospiro[furo[2,3-f][1,3]benzodioxole-7,3′-indol]-1′(2′H)-yl)methyl]-2-(trifluoromethyl)furan-3-carboxamide] |  | 96 to 98 | > 50 | 100 to 1000
O=C(Nc1ccccc1F)c1ccc(CN2C(=O)C3(COc4cc5c(cc43)OCCO5)c3ccccc32)cc1 (stereo not drawn) [Example 12.65, N-(2-fluorophenyl)-4-[(2′-oxo-2,3-dihydrospiro[furo[2,3-g][1,4]benzodioxine-8,3′-indol]-1′(2′H)-yl)methyl]benzamide] |  | 245 to 251 | < 50 | 100 to 1000
N#Cc1cccc(CN2C(=O)C3(COc4cc5c(cc43)OCCO5)c3ccccc32)n1 (stereo not drawn) [Example 41, 6-[(2′-oxo-2,3-dihydrospiro[furo[2,3-g][1,4]benzodioxine-8,3′-indol]-1′(2′H)-yl)methyl]pyridine-2-carbonitrile] |  | 213 to 215 | < 50 | 1 to 100
O=C1N(C[C@H]2OC(O)[C@H](O)[C@@H](O)[C@H]2O)c2ccccc2C12COc1cc3c(cc12)OCCO3 (stereo partly drawn) [Example 20, 6-deoxy-6-(2′-oxo-2,3-dihydrospiro[furo[2,3-g][1,4]benzodioxine-8,3′-indol]-1′(2′H)-yl)-D-galactopyranose] |  | 122 to 126 | < 50 | 1000 to 10000
O=C1N(Cc2ccc(Cl)s2)c2cccc(Br)c2C12COc1cc3c(cc12)OCO3 (stereo not drawn) [Example 4.86, 4′-bromo-1′-[1(5-chloro-2-thienyl)methyl]spiro[furo[2,3-f][1,3]benzodioxole-7,3′-indol]-2′(1′H)-one] | 1 to 100 | 85 to 87 | > 50 | 
Cc1noc(-c2ccc(CN3C(=O)C4(COc5cc6c(cc54)OCCO6)c4ccccc43)cc2)n1 (stereo not drawn) [Example 30, 1′-[4(3-methyl-1,2,4-oxadiazol-5-yl)benzyl]-2,3-dihydrospiro[furo[2,3-g][1,4]benzodioxine-8,3′-indol]-2′(1′H)-one] |  | 177 to 178 | < 50 | 1 to 100
Cn1c(=O)oc2cc3c(cc21)OCC31C(=O)Nc2ccccc21 (stereo not drawn) [Example 3.13, 3-methylspiro[furo[2,3-f][1,3]benzoxazole-7,3′-indole]-2,2′(1′H,3H)-dione] | 1000 to 10000 | > 250 | < 50 | 
COCCOc1ccc2c(c1)C1(CO2)C(=O)N(Cc2ccccn2)c2ccccc21 (stereo not drawn) [Example 5.35, 5-(2-methoxyethoxy)-1′-(pyridin-2-ylmethyl)spiro[1-benzofuran-3,3′-indol]-2′(1′H)-one] | 100 to 1000 | 140 to 142 | < 50 | 
O=C1N(Cc2ccc(C(F)(F)F)o2)c2cc3c(cc2C12COc1cc4c(cc12)CCO4)OCCO3 (stereo not drawn) [Example 2.25, 6-((5-(trifluoromethyl)furan-2-yl)methyl)-2,3,5′,6′-tetrahydro-2′H-spiro[f-[1,4]dioxino[2,3-f]indole-8,3′-benzofuro[6,5-b]furan]-7(6H)-one] | 100 to 1000 | 189 to 191 | > 50 | 
Cc1cc2c(cc1C)C1(CO2)C(=O)N(CC2CCOCC2)c2ccccc21 (stereo not drawn) [Example 9.27, 5,6-dimethyl-1′-(tetrahydro-2H-pyran-4-ylmethyl)spiro[1-benzofuran-3,3′-indol]-2′(1′H)-one] | 1000 to 10000 | 199 to 201 | > 50 | 
Cn1c(CN2C(=O)C3(COc4cc5c(cc43)CCO5)c3ccccc32)nc2ccccc21 (stereo not drawn) [Example 9.12, 1′-[(1-methyl-1H-benzimidazol-2-yl)methyl]-5,6-dihydrospiro[benzo[1,2-b:5,4-b′]difuran-3,3′-indol]-2′(1′H)-one] | 100 to 1000 | 244 to 246 | > 50 | 
O=C1N(Cc2nc3ncccc3o2)c2ccccc2C12COc1cc3c(cc12)OCO3 (stereo not drawn) [Example 6.8, 1′-([1,3]oxazolo[4,5-b]pyridin-2-ylmethyl)spiro[furo[2,3-f][1,3]benzodioxole-7,3′-indol]-2′(1′H)-one] | 1 to 100 | 202 to 204 | < 50 | 
COc1cc2c(cc1F)C1(CO2)C(=O)N(Cc2ccccn2)c2ccccc21 (stereo not drawn) [Example 4.65, 5-fluoro-6-methoxy-1′-(pyridin-2-ylmethyl)spiro[1-benzofuran-3,3′-indol]-2′(1′H)-one] | 100 to 1000 | 142 to 144 | < 50 | 
N#Cc1cccnc1CN1C(=O)C2(COc3cc4c(cc32)OCCO4)c2ccccc21 (stereo not drawn) [Example 11.80] |  | 230 to 233 | < 50 | 1 to 100
CC(C)(C)OC(=O)N1C(=O)C2(COc3cc4c(cc32)OCO4)c2c(Br)cccc21 (stereo not drawn) [Example 18.1, tert-butyl 4′-bromo-2′-oxospiro[furo[2,3-f][1,3]benzodioxole-7,3′-indole]-1′(2′H)-carboxylate] |  | 154 to 156 | > 50 | 1 to 100
O=C(Nc1cccc(Cl)c1)c1ccccc1CN1C(=O)C2(COc3cc4c(cc32)CCO4)c2ccccc21 (stereo not drawn) [Example 12.13, N-(3-chlorophenyl)-2-[(2′-oxo-5,6-dihydrospiro[benzo[1,2-b:5,4-b′]difuran-3,3′-indol]-1′(2′H)-yl)methyl]benzamide] |  | > 230 | > 50 | 1000 to 10000
O=C1N(Cc2ccccn2)c2ccccc2C12COc1c(Cl)cc3c(c12)OCCO3 (stereo not drawn) [Example 4.126, 6-chloro-1′-(pyridin-2-ylmethyl)-2,3-dihydrospiro[furo[3,2-f][1,4]benzodioxine-9,3′-indol]-2′(1′H)-one] | 1000 to 10000 | 197 to 199 | > 50 | 
Cc1ccc(NC(=O)c2cccc(CN3C(=O)C4(COc5cc6c(cc54)CCO6)c4ccccc43)c2)c(C)c1 (stereo not drawn) [Example 12.4, N-(2,4-dimethylphenyl)-3-[(2′-oxo-5,6-dihydrospiro[benzo[1,2-b:5,4-b′]difuran-3,3′-indol]-1′(2′H)-yl)methyl]benzamide] |  | 234 to 235 | > 50 | 100 to 1000
COc1cc(CN2C(=O)C3(COc4cc5c(cc43)OCCO5)c3ccccc32)cc(OC)c1 (stereo not drawn) [Example 4.47, 1′-(3,5-dimethoxybenzyl)-2,3-dihydrospiro[furo[2,3-g][1,4]benzodioxine-8,3′-indol]-2′(1′H)-one] | 1 to 100 | 192 to 195 | > 50 | 
CC(C)c1ncc(CN2C(=O)C3(COc4cc5c(cc43)OCO5)c3cccc(C(F)(F)F)c32)s1 (stereo not drawn) [Example 4.76, 1′-[(2-isopropyl-1,3-thiazol-5-yl)methyl]-7′-(trifluoromethyl)spiro[furo[2,3-f][1,3]benzodioxole-7,3′-indol]-2′(1′H)-one] | 100 to 1000 | 101 to 103 | > 50 | 
CC(O)CCN1C(=O)C2(COc3cc4c(cc32)CCO4)c2ccccc21 (stereo not drawn) [Example 14.4, 1′-(3-hydroxybutyl)-5,6-dihydrospiro[benzo[1,2-b:5,4-b′]difuran-3,3′-indol]-2′(1′H)-one] |  | 64 to 66 | < 50 | 100 to 1000
COc1ccc(CN2C(=O)C3(COc4cc(F)c(C#N)cc43)c3ccccc32)cc1 (stereo not drawn) [Example 2.40, 6-fluoro-1′-(4-methoxybenzyl)-2′-oxo-1′,2′-dihydrospiro[1-benzofuran-3,3′-indole]-5-carbonitrile] | 1000 to 10000 | 142 to 143 | > 50 | 
COc1ncc(CN2C(=O)C3(COc4cc5c(cc43)CCO5)c3ccccc32)cn1 (stereo not drawn) [Example 5, 1-[(2-methoxypyrimidin-5-yl)methyl]-5,6-dihydrospiro[benzo[1,2-b:5,4-b′]difuran-3,3′-indol]-2′(1′H)-one] | 100 to 1000 | 203 to 204 | < 50 | 
O=C1Nc2ccccc2C12COc1cc3c(cc12)OCCCO3 (stereo not drawn) [Example 3.11, 3,4-dihydro-2H-spiro[furo[2,3-h][1,5]benzodioxepine-9,3′-indol]-2′(1′H)-one] | 1000 to 10000 | 235 to 236 | < 50 | 

— patent US8263606B2 (Xenon Pharmaceuticals Inc., priority 2008, dated 2012)
